Our source for the IC50 values is US9255100B2 (BAYER INTELLECTUAL PROPERTY GMBH, priority 2010, dated 2016).

As a reminder, the IC50 is the concentration at which inhibition is half-maximal.

Each structure is given as a SMILES string.

The assay addresses T1, N-terminally GST-tagged human full length recombinant Mps-1 kinase (Homo sapiens, UniProt P33981).
T1 construct: N-terminally GST-tagged human full length recombinant Mps-1 kinase; purchased Invitrogen, Karslruhe, Germany PV4071
T1 sequence (P33981 1-857): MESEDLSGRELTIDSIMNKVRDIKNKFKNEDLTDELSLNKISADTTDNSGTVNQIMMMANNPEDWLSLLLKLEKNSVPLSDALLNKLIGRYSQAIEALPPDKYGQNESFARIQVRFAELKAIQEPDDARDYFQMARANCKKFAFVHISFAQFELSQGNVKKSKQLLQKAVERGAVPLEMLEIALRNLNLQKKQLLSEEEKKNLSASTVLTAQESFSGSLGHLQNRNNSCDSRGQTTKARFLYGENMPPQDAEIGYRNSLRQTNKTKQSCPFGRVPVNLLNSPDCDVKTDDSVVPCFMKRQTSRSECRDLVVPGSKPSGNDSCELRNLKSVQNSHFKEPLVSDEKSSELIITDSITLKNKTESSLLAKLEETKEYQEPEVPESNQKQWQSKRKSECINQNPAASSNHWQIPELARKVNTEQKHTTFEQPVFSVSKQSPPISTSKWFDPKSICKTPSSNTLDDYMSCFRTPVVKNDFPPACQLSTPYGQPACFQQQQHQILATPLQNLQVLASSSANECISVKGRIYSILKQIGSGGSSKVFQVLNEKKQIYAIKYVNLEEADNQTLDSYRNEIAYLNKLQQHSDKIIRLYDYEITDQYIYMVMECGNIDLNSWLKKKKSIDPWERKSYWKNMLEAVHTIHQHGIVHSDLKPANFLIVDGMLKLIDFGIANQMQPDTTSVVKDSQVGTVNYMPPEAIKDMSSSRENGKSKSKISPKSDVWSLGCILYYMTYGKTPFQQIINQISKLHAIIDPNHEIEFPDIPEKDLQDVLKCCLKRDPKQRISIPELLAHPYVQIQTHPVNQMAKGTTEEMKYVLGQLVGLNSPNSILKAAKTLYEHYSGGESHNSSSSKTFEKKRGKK
Put plainly: Mps-1 kinase assay (TR-FRET). As to conditions: Mps1 IC50 [nM], 10 μM ATP, 1 μM peptide substrate, 60 min at 22° C. Type of assay: biochemical. Put shortly: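 Compounds were tested against recombinant full-length Mps-1 bearing an N-terminal GST tag, about 1 nM final, with a biotinylated amide-capped peptide as substrate. Detection reagents were then bound for 1 h at 22° C and the product read by TR-FRET.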
In the case of `Cc1cc(-c2cnc3c(NCC(C)(C)N)cc(Oc4ccc(Cl)cc4)nn23)ccc1C(=O)NC1CC1` [Example 521, 4-{8-[(2-amino-2-methyl-propyl)amino]-6-(4-chloro-phenoxy)imidazo[1,2-b]pyridazin-3-yl}-N-cyclopropyl-2-methylbenzamide], the IC50 is 0.3 nM. On to `Cc1cc(-c2cnc3c(NCC(C)(C)N)cc(Oc4cccnc4)nn23)ccc1C(=O)NC1CC1` [Example 522, 4-{8-[(2-amino-2-methyl-propyl)amino]-6-(pyridin-3-yloxy)imidazo[1,2-b]pyridazin-3-yl}-N-cyclopropyl-2-methylbenzamide], for which the IC50 is 1.8 nM. In the case of `Cc1cc(-c2cnc3c(NCCN(C)C)cc(Oc4ccc(Cl)cc4)nn23)ccc1C(=O)NC1CC1` [Example 523, 4-[6-(4-chlorophenoxy)-8-{[2-(dimethylamino)ethyl]amino}imidazo[1,2-b]pyridazin-3-yl]-N-cyclopropyl-2-methylbenzamide] it was 0.7 nM. In the case of `Cc1cc(-c2cnc3c(NCCN(C)C)cc(Oc4cccnc4)nn23)ccc1C(=O)NC1CC1` [Example 524, N-cyclopropyl-4-[8-{[2-(dimethylamino)ethyl]amino}-6-(pyridin-3-yloxy)imidazo [1,2-b]pyridazin-3-yl]-2-methylbenzamide] it was 2.3 nM; in that of `Cc1cc(-c2cnc3c(NCCN(C)C)cc(Oc4ccc(F)c(F)c4)nn23)ccc1C(=O)NC1CC1` [Example 525, N-cyclopropyl-4-[6-(3,4-difluorophenoxy)-8-{[2-(dimethylamino)ethyl]amino}imidazo[1,2-b]pyridazin-3-yl]-2-methylbenzamide], 0.7 nM.

Turning to `Cc1cc(-c2cnc3c(NCC4CCN(C)CC4)cc(Oc4cccnc4)nn23)ccc1C(=O)NC1CC1` [Example 527, N-cyclopropyl-2-methyl-4-[8-{[(1-methylpiperidin-4-yl)methyl]amino}-6-(pyridin-3-yloxy)imidazo [1,2-b]pyridazin-3-yl]benzamide], the IC50 turned out to be 0.6 nM.

With `CNc1cc(Oc2cccc(F)c2F)nn2c(-c3ccc(C(=O)NC4CC4)c(C)c3)cnc12` [Example 528, N-cyclopropyl-4-[6-(2,3-difluorophenoxy)-8-(methylamino)imidazo[1,2-b]pyridazin-3-yl]-2-methylbenzamide], the IC50 was 0.7 nM. In the case of `CNc1cc(Oc2ccc(F)c(F)c2)nn2c(-c3ccc(C(=O)NC4CC4)c(C)c3)cnc12` [Example 529, N-cyclopropyl-4-[6-(3,4-difluorophenoxy)-8-(methylamino)imidazo [1,2-b]pyridazin-3-yl]-2-methylbenzamide] it was 0.4 nM. For the compound `CNc1cc(Oc2cc(F)ccc2C)nn2c(-c3ccc(C(=O)NC4CC4)c(C)c3)cnc12` [Example 530, N-cyclopropyl-4-[6-(5-fluoro-2-methylphenoxy)-8-(methylamino)imidazo [1,2-b]pyridazin-3-yl]-2-methylbenzamide], the IC50 stood at 0.6 nM. In the case of `CNc1ccccc1Oc1cc(NC)c2ncc(-c3ccc(C(=O)NC4CC4)c(C)c3)n2n1` [Example 531, N-cyclopropyl-2-methyl-4-{8-(methylamino)-6-[2-(methylamino)phenoxy]imidazo[1,2-b]pyridazin-3-yl} benzamide] it was 14.8 nM; in that of `CNc1cc(N(C)c2ccccc2O)nn2c(-c3ccc(C(=O)NC4CC4)c(C)c3)cnc12` [Example 532, N-cyclopropyl-4-{6-[(2-hydroxyphenyl)(methyl)amino]-8-(methylamino)imidazo[1,2-b]pyridazin-3-yl}-2-methylbenzamide], 0.2 nM. As for `CNc1cc(Oc2cncc(F)c2)nn2c(-c3ccc(C(=O)NC4CC4)c(C)c3)cnc12` [Example 533, N-cyclopropyl-4-{6-[(5-fluoropyridin-3-yl)oxy]-8-(methylamino)imidazo [1,2-b]pyridazin-3-yl}-2-methylbenzamide], the IC50 was determined as 1.2 nM. In the case of `CNc1cc(Oc2ccc(OC)cc2F)nn2c(-c3ccc(C(=O)NC4CC4)c(C)c3)cnc12` [Example 534, N-cyclopropyl-4-[6-(2-fluoro-4-methoxy-phenoxy)-8-(methyl-amino)imidazo[1,2-b]pyridazin-3-yl]-2-methylbenzamide] it was 0.1 nM; in that of `CNc1cc(Oc2ccc(OC)c(F)c2)nn2c(-c3ccc(C(=O)NC4CC4)c(C)c3)cnc12` [Example 535, N-cyclopropyl-4-[6-(3-fluoro-4-methoxy-phenoxy)-8-(methyl-amino)imidazo[1,2-b]pyridazin-3-yl]-2-methylbenzamide], 0.1 nM. In the case of `Cc1ccc(F)cc1Oc1cc(NCCN2CCOCC2)c2ncc(-c3ccc(C(=O)NC4CC4)c(C)c3)n2n1` [Example 537, N-cyclopropyl-4-[6-(5-fluoro-2-methylphenoxy)-8-{[2-(morpholin-4-yl)ethyl]amino}imidazo[1,2-b]pyridazin-3-yl]-2-methylbenzamide] it was 0.2 nM; in that of `CNc1ccccc1Oc1cc(NCCN2CCOCC2)c2ncc(-c3ccc(C(=O)NC4CC4)c(C)c3)n2n1` [Example 538, N-cyclopropyl-2-methyl-4-(6-[2-(methylamino)phenoxy]-8-{[2-(morpholin-4-yl)ethyl]amino}imidazo[1,2-b]pyridazin-3-yl)benzamide], 0.8 nM; in that of `Cc1cc(-c2cnc3c(NCCN4CCOCC4)cc(N(C)c4ccccc4O)nn23)ccc1C(=O)NC1CC1` [Example 539, N-cyclopropyl-4-(6-[(2-hydroxy-phenyl)(methyl)amino]-8-{[2-(morpholin-4-yl)ethyl]amino}imidazo[1,2-b]pyridazin-3-yl)-2-methylbenzamide], 0.2 nM. Turning to `Cc1cc(-c2cnc3c(NCCN4CCOCC4)cc(Oc4ccc(F)c(F)c4)nn23)ccc1C(=O)NC1CC1` [Example 540, N-cyclopropyl-4-[6-(3,4-difluoro-phenoxy)-8-{[2-(morpholin-4-yl)ethyl]amino}imidazo[1,2-b]pyridazin-3-yl]-2-methyl-benzamide], the IC50 amounted to 0.1 nM. In the case of `Cc1cc(-c2cnc3c(NCCN4CCOCC4)cc(Oc4cncc(F)c4)nn23)ccc1C(=O)NC1CC1` [Example 541, N-cyclopropyl-4-(6-[(5-fluoro-pyridin-3-yl)oxy]-8-{[2-(morpholin-4-yl)ethyl]amino}imidazo[1,2-b]pyridazin-3-yl)-2-methylbenzamide] it was 0.4 nM; in that of `Cc1cc(-c2cnc3c(NCC4CN(C)C4)cc(Oc4cccc(F)c4F)nn23)ccc1C(=O)NC1CC1` [Example 543, N-cyclopropyl-4-[6-(2,3-difluorophenoxy)-8-{[(1-methylazetidin-3-yl)methyl]amino}imidazo[1,2-b]pyridazin-3-yl]-2-methylbenzamide], 0.2 nM. Take `Cc1cc(-c2cnc3c(NCC4CNC4)cc(Oc4cncc(F)c4)nn23)ccc1C(=O)NC1CC1` [Example 544, 4-{8-[(azetidin-3-ylmethyl)amino]-6-[(5-fluoropyridin-3-yl)oxy]imidazo[1,2-b]pyridazin-3-yl}-N-cyclopropyl-2-methylbenzamide]: the IC50 stood at 1.1 nM. Regarding `Cc1ccc(F)cc1Oc1cc(NCC2CNC2)c2ncc(-c3ccc(C(=O)NC4CC4)c(C)c3)n2n1` [Example 545, 4-{8-[(azetidin-3-ylmethyl)amino]-6-(5-fluoro-2-methylphenoxy)imidazo[1,2-b]pyridazin-3-yl}-N-cyclopropyl-2-methylbenzamide], the IC50 came to 0.1 nM. On to `Cc1cc(-c2cnc3c(NCCCN)cc(Oc4cccc(F)c4)nn23)ccc1C(=O)NC1CC1` [Example 546, 4-{8-[(3-aminopropyl)amino]-6-(3-fluorophenoxy)imidazo[1,2-b]pyridazin-3-yl}-N-cyclopropyl-2-methylbenzamide], for which the 50% inhibitory concentration (IC50) came to 0.1 nM. The figure for `Cc1cc(-c2cnc3c(NCCCS(=O)(=O)O)cc(Oc4cccc(F)c4)nn23)ccc1C(=O)NC1CC1` [Example 547, 3-({3-[4-(cyclopropylcarbamoyl)-3-methylphenyl]-6-(3-fluorophenoxy)imidazo[1,2-b]pyridazin-8-yl}amino)propane-1-sulfonic acid] is 0.2 nM. Turning to `Cc1cc(-c2cnc3c(NCCS(=O)(=O)O)cc(Oc4cccc(F)c4)nn23)ccc1C(=O)NC1CC1` [Example 548, 2-({3-[4-(cyclopropylcarbamoyl)-3-methylphenyl]-6-(3-fluorophenoxy)imidazo[1,2-b]pyridazin-8-yl}amino)ethanesulfonic acid], the IC50 was 0.7 nM. In the case of `Cc1cc(-c2cnc3c(NCCC(N)=O)cc(Oc4cccc(F)c4)nn23)ccc1C(=O)NC1CC1` [Example 549, 4-{8-[(3-amino-3-oxopropyl)amino]-6-(3-fluorophenoxy)imidazo[1,2-b]pyridazin-3-yl}-N-cyclopropyl-2-methyl-benzamide] it was 0.2 nM.
